Reference: patent US20070072954A1, “Novel tetraoxaspiroalkanes and methods of use with organosilicon monomers in polyerizable compositions” (Curators of the University of Missouri, priority 2005, published 2007)
Marks after values point to notes of the source that are not given here.

How the values were obtained:
[1] = Oxirane ring-opening (oxirane conversion) via FTIR; assay type: physicochemical; conditions: thin film, 10 min irradiation
Procedure: In this example, the oxirane ring-opening of monomers 1 (DEBAOM-1,5,7,11-TOSU) or 6 (DEBTMSPOM-1,5,7,11-TOSU) was investigated using FTIR. All FTIR spectra were acquired using a Perkin-Elmer BX II FTIR spectrophotometer. The identification of the location of the oxirane absorption band in the IR spectrum of Siloranes was achieved by methanolysis. A sample was dissolved in CH2Cl2 and exposed to CH30H in the presence of a catalytic amount of zinc tetrafluoroborate hydrate overnight. The mixture was evaporated onto a salt plate. An FTIR spectrum was acquired and compared to pre-exposure spectrum. There was a significant decrease in the oxirane absorption region at 882-886 cm^−1. This band was selected as the absorption to monitor for following the oxirane ring-opening reaction.
Analytical samples contained siloranes I, II, or SIL-MIX with and without 50 mol % of monomer 1 (DEBAOM-1,5,7,11-TOSU) or 6 (DEBTMSPOM-1,5,7,11-TOSU). A thin film was brushed onto a salt plate. Irradiation (10 minutes at 23 to 25° C. and R. H.=40-45%) was provided by a 3M XL2500 curing light positioned 1-cm above the sample surface. The light intensity was measured at 360 mW/cm^2 on the sample surface. The oxirane band absorption and an internal reference band absorption were assessed before and after irradiation. Oxirane conversion (alpha) was calculated according to equation (1) by Pan et al., Polym Int 2000, 49, 74. [formula] where subscripts 0 and t represent pre-irradiation and post-irradiation respectively.

[2] = Photopolymerization stress measurement (tensilometer); assay type: physicochemical; conditions: for Polymerization Stress: mean(std. dev.), n=3, TOSU monomers 20 mol % in SIL-MIX, BT and SIL-MIX alone
Procedure: In this example, the photopolymerization stress of the monomers of the present invention was investigated. Stress generated during photopolymerization was measured (n=3) using an electromagnetic mechanical testing machine (Enduratec Model 3200, Bose Corp., Minnetonka, Minn.) adapted to be a tensilometer. See Feilzer et al., Dent. Mater. […] Briefly, two identical glass rods, 5 mm in diameter, were placed opposing one another and separated by 1 mm (C-factor=2.5). A displacement transducer (LVDT, Enduratec, 0.1 μm resolution, range ±1 mm) was mounted on one glass rod and was touching a plate attached to the opposing glass rod. The distance between the mounts on the opposing glass rods was about 9 mm (including the 1 mm separation between the rods). Samples placed between the glass rods were cured by irradiation (500 mW/cm^2), while under LVDT displacement control. Load-displacement data were collected at 200 Hz for 30 mins. […] From the load-displacement data, peak loads were obtained and normalized by the original area to obtain the polymerization stresses.

[3] = Photoreactivity assessment (photo DSC enthalpy of polymerization); assay type: physicochemical; conditions: for ΔH (experimental)/ΔH (calculated): calculated for an inert diluent; for Exotherm Peak Maximum / Net Enthalpy ΔH: TOSU monomers 20 mol % in SIL-MIX, SIL-MIX alone; for Net Enthalpy ΔH: experimental, 1 wt % CQ, 0.1 wt % ED, 400-500 nm, 10 min, 25° C., n=1; for Net Enthalpy ΔH / ΔHexp / ΔHcalc: 3 wt % PI
Source text: In this example, the photoreactivity of various combinations of SIL-MIX alone or SIL-MIX with 3,9-diethyl-3,9-bis(allyloxymethyl)-1,5,7,11-tetraoxaspiro[5.5]undecane (DEBAOM-1,5,7,11-TOSU) 1; 3,9-bis(3-trimethylsilylpropyl)-1,5,7,11-tetraoxaspiro[5.5]undecane (BTMSP-1,5,7,11-TOSU) 2; 3,9-bis(allyloxymethyl)-2,4,8,10-tetraoxaspiro[5.5]undecane (BAOM-2,4,8,10-TOSU) 3; 3,9-bis(2-trimethylsilylethyl)-[…] (BTMSE-2,4,8,10-TOSU) 4; 3,3-diethyl-11,12-epoxy-1,5,7,16-tetraoxadispiro[5.2.5.2]hexadecane (DECHE-1,5,7,11-TOSU) 5; and 3,9-diethyl-3,9-bis(3-trimethylsilylpropyloxymethyl)-1,5,7,11-tetraoxaspiro[5.5]-undecane (DEBTMSPOM-1,5,7,11-TOSU) 6 was investigated. The photoreactivity assessments (n=1) were made using an EXFO Novacure light curing unit interfaced with a Perkin-Elmer Diamond DSC. The experimental conditions were as follows: 25° C.; N2 atmosphere; 400-500 nm light; 3 mm quartz light guides; output: 500 mW/cm measured 15 mm from sample surface. The sample weights were 15-18 mg. Standard A1 pans were used. An empty pan was placed in the reference position. Irradiation time was for 10 minutes following a 1 minute equilibration. After the initial run, the sample was re-irradiated for an additional 10 minutes. This second curve was subtracted from the initial exotherm curve to zero out artifacts due to beginning and ending of irradiation, and to compensate for the heat capacity differences between the sample pan and empty reference pan. Integrations were from time t=1.1 (lamp shutter opened) min to 11.1 min (lamp shutter closed).
In this example, reaction mixtures containing 0 or 20 mol % of TOSU monomers 1, 2, 3, 4, and 5 in SIL-MIX were formulated with 4.1 wt % photoinitiator system (3 wt % PI; 1 wt % CQ; 0.1 wt % ED). Formulated mixtures were heated for 5 minutes on an oil bath at about 60° C. and stirred magnetically to aid dissolution of the photoinitiator system and inventive monomer. Formulations were prepared and stored away from ambient light. Mixtures were tested for photoreactivity the same day as prepared.
The effect of doubling the photoinitiator (PI) content from 3 wt % to 6 wt % was also determined for selected mixtures. As in Example 7(a) above, reaction mixtures (about 2 g) were formulated with 4.1 wt % photoinitiator system (3 wt % PI; 1 wt % CQ; 0.1 wt % ED) except where noted. Formulated mixtures were heated for 5 minutes on an oil bath @ 60° C. and stirred magnetically to dissolve the photoinitiator system and 6 (DEBTMSPOM-1,5,7,11-TOSU) when included. Formulations were prepared and stored away from ambient light and tested the same day as prepared.

[4] = Mechanical properties measurement (3-point bend tests); assay type: physicochemical; conditions: for Flexural elastic modulus / Work of Fracture / Flexural ultimate strength: 24-h, mean(std. dev.), n=6, BT and SIL-MIX alone; for Flexural ultimate strength: the values are: Ultimate (flexural) strength
Procedure: In this example, the elastic modulus, ultimate strength, and work of fracture were determined for the monomers of the present invention. […] The resin was injected into the mold and cured by irradiation (500 mW/cm^2) followed by storage in the dark for 4 hours and 24 hours before mechanical tests were conducted. Three point bending tests were conducted using an electromagnetic mechanical testing machine (Enduratec Model 3200) with a 20-mm span and at a crosshead displacement rate of 0.5mm/ min at room temperature (25° C.). Load-displacement data were collected at 100 Hz. […] Flexural ultimate strength was determined from the peak loads and work of fracture was determined from the area under the stress-strain curve.

[5] = 20 mol % in SIL-MIX, Dunnett's test p=0.05
[6] = TOSU monomers 20 mol % in SIL-MIX

Compound	Polymerization Stress [2]	ΔH (experimental)/ΔH (calculated) ([3]; 20 mol % in SIL-MIX) [%]	Exotherm Peak Maximum [3] [s]	Net Enthalpy ΔH [3]	elastic modulus values compared with the methacrylate control (BT) [4, 5]	ultimate strength values compared with the methacrylate control (BT) [4, 5]	Flexural elastic modulus [4, 6] [GPa]	Work of Fracture [4, 6]	Flexural ultimate strength [4, 6] [MPa]	also measured
C[Si]1(CCC2CCC3OC3C2)O[Si](C)(CCC2CCC3OC3C2)O[Si](C)(CCC2CCC3OC3C2)O[Si](C)(CCC2CCC3OC3C2)O1 (centres unmarked) [TET-SIL, 2,4,6,8-tetramethyl-2,4,6,8-tetrakis-[2-(7-oxabicyclo[4.1.0]hept-3-yl)ethyl]-1,3,5,7-tetraoxa-2,4,6,8-tetrasilacyclooxtane, reference compound]										Oxirane Conversion ([1]; silorane without comonomer): 13%
C[Si](C)(C)CCCC1COC2(OC1)OCC(CCC[Si](C)(C)C)CO2 (centres unmarked) [Monomer 2, 3,9-bis(3-trimethylsilylpropyl)-1,5,7,11-tetraoxaspiro[5.5]undecane]	0.23 (0.06)* N/mm^2	54	14	−78^b J/g	significantly lower	significantly lower	1.9	1.12 (0.42)* kJ/m^2	42.4	work of fracture values compared with the methacrylate control (BT) [4, 5]: significantly lower; all mechanical properties, overall comparison (with BT control and among formulations) ([4]; TOSU monomers 20 mol % in SIL-MIX, SIL-MIX alone): lowest mechanical property values
C=CCOCC1OCC2(CO1)COC(COCC=C)OC2 (centres unmarked) [Monomer 3, 3,9-bis(allyloxymethyl)-2,4,8,10-tetraoxaspiro[5.5]undecane]	1.20 (0.17)* N/mm^2	117	15	−170^b J/g	significantly lower	significantly lower	2.13	7.17 (1.58) kJ/m^2	87.8	enthalpies above those calculated for addition of an inert diluent ([3]; 20 mol % in SIL-MIX): 17%
CCC1(CC)COC2(OC1)OCC1(CCC3OC3C1)CO2 (centres unmarked) [Monomer 5, 3,3-diethyl-11,12-epoxy-1,5,7,16-tetraoxadispiro[5.2.5.2]hexadecane]	0.33 (0.15)* N/mm^2	57	16	−82^b J/g			2.58	5.33 (1.09) kJ/m^2	96	melting point: 67.4 °C
C=CCOCC1(CC)COC2(OC1)OCC(CC)(COCC=C)CO2 (centres unmarked) [Monomer 1, 3,9-diethyl-3,9-bis(allyloxymethyl)-1,5,7,11-tetraoxaspiro[5.5]undecane]	0.17 (0.06)* N/mm^2	80	14	−116^b J/g	significantly lower	significantly lower	2.2	5.82 (2.02) kJ/m^2	84.6	Oxirane Conversion ([1]; comonomer 50 mol % in PH-SIL (I)): 36%; Oxirane Conversion ([1]; comonomer 50 mol % in TET-SIL (II)): 27%; ΔHexp ([3]; 20 mol % in SIL-MIX): -124 J/g; ΔHexp ([3]; 50 mol % in PH-SIL): -78 J/g; ΔHcalc ([3]; calculated for inert diluent instead of TOSU at 20 mol %): -154 J/g; ΔHcalc ([3]; calculated for inert diluent instead of TOSU at 50 mol % in PH-SIL): -104 J/g; experimental ΔH as % of the calculated ΔH ([3]; 20% in SIL-MIX): 81%; experimental value as % of the calculated value (ΔH) ([3]; 50% in Ph-Sil): 75%
C[Si](C)(C)CCC1OCC2(CO1)COC(CC[Si](C)(C)C)OC2 (centres unmarked) [Monomer 4, 3,9-bis(2-trimethylsilylethyl)-2,4,8,10-tetraoxaspiro[5.5]undecane]	6.90 (1.76)* N/mm^2	117	17	−170^b J/g		significantly lower	2.36	5.63 (1.82) kJ/m^2	92.2	Photopolymerization stress reduced ([2]; 20 mol % in SIL-MIX): 40%; enthalpies above those calculated for addition of an inert diluent ([3]; 20 mol % in SIL-MIX): 17%
C[Si](CCC1CCC2OC2C1)(CCC1CCC2OC2C1)c1ccccc1 (centres unmarked) [PH-SIL, methylbis[2-(7-oxabicyclo[4.1.0]hept-3-yl)ethyl]phenylsilane, reference compound]										Oxirane Conversion ([1]; silorane without comonomer): 31%; ΔHexp ([3]; 100% silorane): -208 J/g
